Experimental findings from patent US12606548B2, “Fungicidal oxadiazoles” (FMC CORPORATION, priority 2019, dated 2026) are described below.

Marks after values point to notes of the source that are not given here.

Common to all, as to format: in vivo
Assay [1] concerns Phakopsora pachyrhizi. Nature of the assay: Test A: test suspension sprayed on soybean seedlings, inoculated next day with Phakopsora pachyrhizi (Asian soybean rust), visual disease rating. The following applies: for Test A rating (% disease control): Rate 10 ppm test suspension, relative to the controls. The source says:
General protocol for preparing test suspensions for Tests A-C: the test compounds were first dissolved in acetone in an amount equal to 3% of the final volume and then suspended at the desired concentration (in ppm) in acetone and purified water (50/50 mix by volume) containing 250 ppm of the surfactant PEG400 (polyhydric alcohol esters). The resulting test suspensions were then used in Tests A-C. The test suspension was sprayed to the point of run-off on soybean seedlings. The following day the seedlings were inoculated with a spore suspension of Phakopsora pachyrhizi (the causal agent of Asian soybean rust) and incubated in a saturated atmosphere at 22° C., for 24 h and then moved to a growth chamber at 22° C., for 8 days, after which time visual disease ratings were made. […] A dash (-) indicates the compound was not tested. The test suspensions were sprayed at the concentration listed in the column “Rate in ppm”, unless otherwise indicated.

The subject of assay [2] is Zymoseptoria tritici. Nature of the assay: Test B: test suspension sprayed on wheat seedlings, inoculated next day with Zymoseptoria tritici (wheat leaf blotch), visual disease rating. The following applies: for Test B rating (% disease control): relative to the controls. The source says:
General protocol for preparing test suspensions for Tests A-C: the test compounds were first dissolved in acetone in an amount equal to 3% of the final volume and then suspended at the desired concentration (in ppm) in acetone and purified water (50/50 mix by volume) containing 250 ppm of the surfactant PEG400 (polyhydric alcohol esters). The resulting test suspensions were then used in Tests A-C.
The test suspension was sprayed to the point of run-off on wheat seedlings. The following day the seedlings were inoculated with a spore suspension of Zymoseptoria tritici (the causal agent of wheat leaf blotch) and incubated in a saturated atmosphere at 24° C., for 48 h, and then moved to a growth chamber at 20° C., for 17 days, after which time visual disease ratings were made.
Results for Tests A-C are given in Table A. In the Table, a rating of 100 indicates 100% disease control and a rating of 0 indicates no disease control (relative to the controls). A dash (-) indicates the compound was not tested. The test suspensions were sprayed at the concentration listed in the column “Rate in ppm”, unless otherwise indicated. An asterisk “*” next to the rating indicates a 250 ppm test suspension was used, a double asterisk “**” next to the rating indicates a 100 ppm test suspension was used, and a triple asterisk “***” next to the rating indicates a 50 ppm test suspension was used.

In assay [3] the test system is Puccinia recondita f. sp. tritici. Nature of the assay: Test C: test suspension sprayed on wheat seedlings, inoculated next day with Puccinia recondita f. sp. tritici (wheat leaf rust), visual disease rating. The following applies: for Test C rating (% disease control): Rate 10 ppm test suspension, relative to the controls. The source says:
General protocol for preparing test suspensions for Tests A-C: the test compounds were first dissolved in acetone in an amount equal to 3% of the final volume and then suspended at the desired concentration (in ppm) in acetone and purified water (50/50 mix by volume) containing 250 ppm of the surfactant PEG400 (polyhydric alcohol esters). The resulting test suspensions were then used in Tests A-C. The test suspension was sprayed to the point of run-off on wheat seedlings. The following day the seedlings were inoculated with a spore suspension of Puccinia recondita f. sp. tritici; (the causal agent of wheat leaf rust) and incubated in a saturated atmosphere at 20° C., for 24 h, and then moved to a growth chamber at 20° C., for 6 days, after which time visual disease ratings were made. […] A dash (-) indicates the compound was not tested. The test suspensions were sprayed at the concentration listed in the column “Rate in ppm”, unless otherwise indicated.

With `O=C(NCCn1cccn1)c1csc(Cc2ccc(-c3noc(C(F)(F)F)n3)cc2)n1` [compound 396], in assay [1], the “Test A rating (% disease control)” value came out at 100%. Further, the “Test B rating (% disease control)” value in assay [2] (250 ppm test suspension) is given as 28* %. Moreover, in assay [3], the “Test C rating (% disease control)” value is 100%.

Turning to `ON=Cc1cnn(Cc2ccc(-c3noc(C(F)(F)F)n3)cc2)c1` [compound 20], in assay [1] (250 ppm test suspension), the “Test A disease control rating” value was determined as 100%. The “Test B disease control rating” value in assay [2] (250 ppm test suspension) worked out at 99%. Besides, in assay [3] (250 ppm test suspension), the “Test C disease control rating” value is recorded as 100%.

For the compound “methyl 4,5-dihydro-2-[[4-[5-(trifluoromethyl)-1,2,4-oxadiazol-3-yl]phenyl]methyl]-4-oxazolecarboxylate [Compound 74]”, the “Test A disease control rating” value in assay [1] (250 ppm test suspension) is recorded as 100%. Besides, the “Test B disease control rating” value in assay [2] (250 ppm test suspension) is 0%. Further, the “Test C disease control rating” value in assay [3] (250 ppm test suspension) is on record as 96%.

As for “4,5-dihydro-N,N-dimethyl-2-[[4-[5-(trifluoromethyl)-1,2,4-oxadiazol-3-yl]phenyl]methyl]-4-oxazolecarboxamide [Compound 178]”, in assay [1] (260 ppm test suspension), the “Test A disease control rating” value was 100%. Moreover, the “Test B disease control rating” value in assay [2] (260 ppm test suspension) was found to be 93%. In addition, in assay [3] (260 ppm test suspension), the “Test C disease control rating” value was 100%.

In the case of `N#CCCNC(=O)c1coc(Cc2ccc(-c3noc(C(F)(F)F)n3)cc2)n1` [compound 229], in assay [1] (10 ppm test suspension), the “Test A disease control rating” value is listed as 100%. The “Test B disease control rating” value in assay [2] (250 ppm test suspension) was 94* %. Also, the “Test C disease control rating” value in assay [3] (10 ppm test suspension) is reported as 100%.

In the case of `O=C(NCCC(F)(F)F)c1csc(COc2ccc(-c3noc(C(F)(F)F)n3)cc2)n1` [compound 472], the “Test A rating (% disease control)” value in assay [1] was determined as 77%. Further, in assay [2] (250 ppm test suspension), the “Test B rating (% disease control)” value is on record as 22* %. Further, in assay [3], the “Test C rating (% disease control)” value was found to be 0%.

With `O=C(NCCn1cccn1)c1coc(Cc2ccc(-c3noc(C(F)(F)F)n3)cc2)n1` [compound 264], in assay [1] (10 ppm test suspension), the “Test A disease control rating” value is given as 100%. The “Test B disease control rating” value in assay [2] (250 ppm test suspension) was 99* %. For the same compound, the “Test C disease control rating” value in assay [3] (10 ppm test suspension) is recorded as 99%.

`CCOC(=O)c1cnn(C(C)c2ccc(-c3noc(C(F)(F)F)n3)s2)c1` (racemic) [Compound 192]: the “Test A disease control rating” value in assay [1] (10 ppm test suspension) came to 100%. For the same compound, the “Test B disease control rating” value in assay [2] (250 ppm test suspension) is given as 99* %. The “Test C disease control rating” value in assay [3] (10 ppm test suspension) is 100%.

Regarding `CCNC(=O)c1csc(Cc2ccc(-c3noc(C(F)(F)F)n3)cc2)n1` [compound 488], the “Test A rating (% disease control)” value in assay [1] was determined as 100%. For the same compound, the “Test B rating (% disease control)” value in assay [2] (250 ppm test suspension) was 99* %. In addition, the “Test C rating (% disease control)” value in assay [3] is 100%.

`CCCOC(=O)c1cnn(Cc2ccc(-c3noc(C(F)(F)F)n3)s2)c1` [compound 198]: the “Test A disease control rating” value in assay [1] (10 ppm test suspension) turned out to be 100%. Also, the “Test B disease control rating” value in assay [2] (100 ppm test suspension (double asterisk **)) is given as 94** %. Further, the “Test C disease control rating” value in assay [3] (10 ppm test suspension) came out at 99%.

In the case of `COC(=O)c1coc(Cc2ccc(-c3noc(C(F)(F)F)n3)cc2)n1` [Compound 490], the “Test A rating (% disease control)” value in assay [1] worked out at 100%. Moreover, in assay [2] (250 ppm test suspension), the “Test B rating (% disease control)” value is 94* %. Besides, the “Test C rating (% disease control)” value in assay [3] came out at 74%.

`COCCNC(=O)c1coc(Cc2ccc(-c3noc(C(F)(F)F)n3)cc2)n1` [compound 257]: the “Test A disease control rating” value in assay [1] (10 ppm test suspension) is 100%. The “Test B disease control rating” value in assay [2] (250 ppm test suspension) is reported as 99* %. For the same compound, in assay [3] (10 ppm test suspension), the “Test C disease control rating” value turned out to be 100%.

For `O=C(c1csc(Cc2ccc(-c3noc(C(F)(F)F)n3)cc2)n1)N1CCOCC1` [compound 487], in assay [1], the “Test A rating (% disease control)” value amounted to 100%. For the same compound, in assay [2] (100 ppm test suspension (double asterisk)), the “Test B rating (% disease control)” value is recorded as 98** %. In assay [3], the “Test C rating (% disease control)” value was determined as 100%.

Turning to `CCOC(=O)c1cccc(Cc2ccc(-c3noc(C(F)(F)F)n3)cc2)c1` [Compound 454], the “Test A rating (% disease control)” value in assay [1] worked out at 100%. Moreover, in assay [2] (250 ppm test suspension), the “Test B rating (% disease control)” value is listed as 47* %. Further, the “Test C rating (% disease control)” value in assay [3] stood at 0%.

As for `CCOC(=O)c1cnn(COc2ccc(-c3noc(C(F)(F)F)n3)cc2)c1` [compound 376], in assay [1] (10 ppm test suspension), the “Test A disease control rating” value stood at 100%. In addition, the “Test B disease control rating” value in assay [2] (250 ppm test suspension) is reported as 49* %. Also, the “Test C disease control rating” value in assay [3] (10 ppm test suspension) is on record as 68%.
